Test results: PMC9367001 (Journal of Chemical Theory and Computation, 2022)

Biological target: IN05 HA trimer
Format: binding, influenza A/Indonesia/5/2005 (H5 subtype)

α2,6-linked sialyl lactosamine [6-SLN]
KD,MST: no detectable binding
